Laboratory results as given in patent US20020091082A1, “Methods of modulating symptoms of hypertension” (priority 2000, published 2002).
Entries after “also recorded” stand apart in the source; their conditions may differ. Like-named read-outs stand apart in the source and are kept apart here.

Columns and labels:
Akt = experiment: Stretch-induced Akt phosphorylation in retinal pericytes; format: cell-based, bovine; conditions: cyclic stretch
Procedure: The mechanism of stretch-induced Akt phosphorylation was evaluated using two PI3 kinase inhibitors (LY294002 and wortmannin), the MEK1 inhibitor PD98059 and the tyrosine kinase inhibitor genistein.
(§1) Mechanical Stretch: For pericyte experiments, cells were plated on 6-well flexiblebottom culture plates coated with collagen (Flexcell Corp.,Mckeepsport, Pa.). After 2 days, media were changed to DMEM containing 1% calf serum and the cells incubated overnight. Cells were then subjected to uniform radial and circumferential strain in 5% CO2 at 37° C. using a computer-controlled, vacuum stretch apparatus (Flexcer Cell Strain Unit; Flexcel Corp.). A physiologic stretch frequency of 60 cpm and 3-20% prolongation of elastomer bottomed plates were used as previously described.
ERK1/2 and Akt phosphorylation: Cells were washed with cold PBS and lysed in 1X Laemmli buffer containing protease inhibitors as described above. Cell lysates were heated to 95 °C for 2 min and equal volume of lysates were subjected to SDS-PAGE under reducing conditions. The blots were incubated with anti-phosphospecific ERK1(p44)/ERK2(p42) or anti-phosphospecific Akt antibody (New England Biolabs, Beverly, Ma.). Lane loading differences were normalized by reblotting with non-phosphorylation-specific (total) anti ERK1 antibody (Santa Cruz Biological) or anti-total Akt antibody(New England Biolabs).

VEGF mRNA = experiment: Stretch-induced VEGF mRNA expression in bovine retinal pericytes (Northern blot); format: cell-based; conditions: BRPC; for inhibition of stretch-induced VEGF mRNA expression: 9%/60 cpm cyclic stretch 3 hours, genistein 20 uM, adenovirus 1×10^8 pfu/ml; for inhibition of stretch-induced VEGF mRNA expression / effect on stretch-induced VEGF mRNA expression: LY294002 50 uM, wortmannin 100 nM; for effect on basal VEGF mRNA expression: unstretched; for effect on stretch-induced VEGF mRNA expression: 9%/60 cpm cyclic stretch, PD98059 20 uM, GF109203X 5 uM
Procedure: To determine the mechanism by which stretch increased VEGF mRNA expression, inhibitors of MEK1 (PD98059, 20 uM), classical/novel PKC isoforms (GF109203X, 5 uM), tyrosine phosphorylation (genistein, 20 uM) and PI3 kinase (wortmannin, 100 nM and LY294002, 50 uM) were evaluated. In all experiments 9%/60 cpm cyclic stretch for 3 hours induced VEGF mRNA expression. Inhibition of ERK1/2 utilizing PD98059 had little effect on either basal or stretch-induce expression of VEGF. […] LY294002 and wortmannin inhibited stretched induced VEGF mRNA expression by 85±20% (p=0.039) and 96±25% (p=0.035), respectively.
Cell culture: Primary cultures of bovine retinal pericytes (BRPC) were isolated by homogenization and a series of filtration steps. BRPC were cultured in DMEM containing 5.5 mM glucose and 20% FBS. The cells were maintained in 5% CO2 at 37 °C and media were changed every three days. Cells were characterized for their homogeneity by immunoreactivity with monoclonal antibody 3G5. Cells were plated at a density of 2×10^4 cells/cm2 and passaged when confluent. The media were changed every three days and only cells from passages 2-5 were used for experiments.
as §1
RNA Extraction: RNA was extracted using the guanidinium thiocynate method. RNA purity was determined by the ratio of optical density (OD) measured at 260 & 280 nm and RNA quantity was estimated using OD measured at 260 nm.
Northern Blot Analysis: Northern blot analysis was performed on 15 μg total RNA per lane after 1% agarose-2M formaldehyde gel electrophoresis and subsequent capillary transfer to Biodyne nylon membranes (Pall BioSupport, East Hills, N.Y.). Membranes underwent ultraviolet crosslinking using a UV Stratalinker 2400 (STRATAGENE, La Jolla, Calif.). Radioactive probes were generated using Amersham Megaprime labeling kits (Buckinghamshire, England) and 32PdCTP (NEN Life Science Products Inc., Boston, Mass.). Blots were pre-hybridized, hybridized and washed 4 times in 0.5×SSC, 5% SDS at 65 °C for 1 hour in a rotating hybridization oven (Robbins Scientific Corporation, Sunnyvale, Calif.). All signals were analyzed using a computing PhosphorImager with ImageQuant software analysis (Molecular Dynamics, Sunnyvale, Calif.). The signal for each sample was normalized by re-probing the same blot using 36B4 cDNA control probe.

ERK1/2 = experiment: Stretch-induced ERK1/2 phosphorylation in retinal pericytes; format: cell-based, bovine
Procedure: To determine what pathways were activated in retinal pericytes exposed to cardiac profile cyclic stretch, ERK phosphorylation, PI3 kinase activity and Akt phosphorylation were evaluated. Stretch induced a rapid increase in ERK 1/ 2 phosphorylation which was initially evident after 2 minutes, maximal at 5 min (ERK1=20-fold; ERK2=8.9-fold increase) and still maintained above baseline even after 60 min (ERK1=6.3-fold; ERK2=4.5-fold).
Further confirmation that stretch-induced ERK1/2 activation was not involved in mediating stretch-induced VEGF expression was obtained by assaying ERK1/2 phosphorylation after exposure to the inhibitors described herein. The inhibitor response for stretch-induced ERK1/2 phosphorylation was opposite that observed for stretch-induced VEGF expression. Stretch-induced ERK1/2 phosphorylation was reduced by inhibition of MEK1 (85+10.8%, 88+7.1%, p<0.05) or classical/novel PKC (83+23%, 84+7.1% p<0.05) but relatively unaffected by inhibition of PI3 kinase or tyrosine phosphorylation. Adenovirus infection with dominant negative ERK, wild type active ERK63 or b-galactosidase control had no effect on stretch-induced VEGF expression.
Mechanical Stretch: For pericyte experiments, cells were plated on 6-well flexiblebottom culture plates coated with collagen (Flexcell Corp.,Mckeepsport, Pa.). […]

[1] = Blood pressure in spontaneously hypertensive rats (tail cuff); format: in vivo, rat; conditions: SHR rats, treatment for one week in drinking water
Procedure: (§2) 12 week-old male spontaneously hypertensive rats (SHR) and weight-matched Wistar-Kyoto (WKY) control animals were used. Systolic and diastolic blood pressures were measured from each animal by tail cuff. Animals were treated with or without 100 mg/kg/day captopril or 10 mg/kg/day candesartan cilexetil for one week. Drugs were administered in drinking water. Blood measurements were repeated after therapy and the retinas individually isolated.

KDR mRNA [2] = experiment: Cyclic stretch-induced KDR mRNA expression; format: cell-based, bovine
Procedure: (§3) Cyclic stretch induces KDR mRNA at least 2.2 fold. […] In contrast, angiotensin II which also induces KDR mRNA is blocked from doing so by candesartan cilexetil, an AT1 receptor antagonist. Thus, unlike Angiotensin II induced KDR expression, stretch induced KDR expression is not mediated through the AT1 receptor pathway.
(§4) Cells were seeded on 6-well flexible-bottom plates coated with bovine fibronectin and subjected to uniform radial and circumferential strain using a computercontrolled, vacuum stretch apparatus (Flexcer Cell Strain Unit; Flexcel Corp.) with cardiac profile at a frequency of 60 cpm.

KDR mRNA [3] = experiment: Angiotensin II-induced KDR mRNA expression; format: cell-based
From the text: as §3

retinal VEGF mRNA = experiment: Retinal VEGF mRNA in spontaneously hypertensive rats (multiplex RT-PCR); format: in vivo, rat; conditions: SHR rats; captopril 100 mg/kg/day or candesartan cilexetil 10 mg/kg/day in drinking water for one week
Procedure: as §2
(§5) RNA was isolated from individual retinas and RNA reverse transcribed at 42° C. using random hexamer primers. PCR amplification was carried out using a 55° C. annealing temperature. The samples were separated on a 6% nondenaturing polyacrylamide gel. The gel was dried and analyzed by PhosphorImager. Signal intensity was normalized using rat ribosomal phosphoprotein P0 (RRRPP0) as an internal standard.

retinal KDR mRNA = experiment: Retinal KDR mRNA in spontaneously hypertensive rats (multiplex RT-PCR); format: in vivo, rat; conditions: SHR rats, captopril 100 mg/kg/day or candesartan cilexetil 10 mg/kg/day in drinking water for one week
Procedure: To determine the effect of hypertension on KDR levels in vivo, KDR mRNA was quantified in hypertensive rats (SHR) as well as weight-matched controls (WKY). […] Captopril is an angiotensin converting enzyme (ACE) inhibitor. Candesartan Cilexetil is an angiotensin II antagonist.
as §2, §5

[4] = test system: bovine retinal endothelial cells (BRECs); experiment: 3H-thymidine incorporation (mitogenesis) under cyclic stretch; format: cell-based
Procedure: Cells can respond to VEGF by proliferation. A measure of proliferation is the rate of cell progression through mitosis. Cells transiting S phase will incorporate ^3H-thymidine.
To determine if the effects of cyclic stretching on mitogenesis are mediated by VEGF signaling, cells were stretched while treated with a VEGF neutralizing antibody.
as §4
Confluent cells were placed in 1% calf serum for 24 hours and then subjected to 9%/60 cpm cyclic stretch for 24 hrs. During the last 12 hrs, VEGF (25 ng/ml final). VEGF neutralizing antibody (10 μg/ml was added 30 minutes prior to stretch onset. ^3H-thymidine (0.5 μCi/ml)was added during the last 6 hours.

O=c1c(-c2ccc(O)cc2)coc2cc(O)cc(O)c12 [genistein]
inhibition of stretch-induced Akt phosphorylation (Akt): 84+14% | inhibition of stretch-induced VEGF mRNA expression (VEGF mRNA): 87±12% | effect on basal VEGF mRNA expression (VEGF mRNA): without altering | effect on stretch-induced ERK1/2 phosphorylation (ERK1/2): lack of response

O=c1cc(N2CCOCC2)oc2c(-c3ccccc3)cccc12 [LY294002]
inhibition of stretch-induced Akt phosphorylation (Akt): 119+14% | inhibition of stretch-induced VEGF mRNA expression (VEGF mRNA): 85±20%

COC[C@H]1OC(=O)c2coc3c2[C@@]1(C)C1=C(C3=O)[C@@H]2CCC(=O)[C@@]2(C)C[C@H]1OC(C)=O [wortmannin]
inhibition of stretch-induced Akt phosphorylation (Akt): 119+18% | inhibition of stretch-induced VEGF mRNA expression (VEGF mRNA): 96±25%

COc1cccc(-c2cc(=O)c3ccccc3o2)c1N [PD98059]
effect on stretch-induced Akt phosphorylation (Akt): little effect | effect on stretch-induced VEGF mRNA expression (VEGF mRNA): little effect; also recorded: not suppressed | effect on basal VEGF mRNA expression (VEGF mRNA): little effect

CCOc1nc2cccc(C(=O)OC(C)OC(=O)OC3CCCCC3)c2n1Cc1ccc(-c2ccccc2-c2nn[nH]n2)cc1 (stereo not drawn) [candesartan cilexetil]
effect on blood pressure [1]: normalization | effect on cyclic stretch-induced KDR mRNA expression (KDR mRNA [2]): not significantly affected | effect on cyclic stretch-induced KDR mRNA expression (KDR mRNA [2]; listed as candesartan): not inhibited | effect on angiotensin II-induced KDR mRNA (KDR mRNA [3]; angiotensin II stimulation): blocked | effect on hypertension-induced elevation of retinal VEGF mRNA (retinal VEGF mRNA): blocked | effect on hypertension-induced elevation of retinal KDR mRNA (retinal KDR mRNA): blocked | effect on hypertension-induced elevation of retinal KDR mRNA (retinal KDR mRNA; listed as candesartan): returned to baseline levels

VEGF
increase of VEGF-stimulated thymidine uptake by cyclic stretch ([4]; BREC, cyclic stretch plus VEGF): 2.6+/−0.2 fold | increase in 3H-thymidine uptake ([4]; cyclic stretching in combination with exogenous VEGF (25 ng/ml)): 257±21% | effect on 3H-thymidine uptake ([4]; exogenous VEGF alone, no stretch): no significant effect

CN(C)CCCn1cc(C2=C(c3c[nH]c4ccccc34)C(=O)NC2=O)c2ccccc21 [GF109203X]
effect on stretch-induced VEGF mRNA expression (VEGF mRNA): did not alter | effect on stretch-induced ERK1/2 phosphorylation (ERK1/2): inhibition

angiotensin II (DRVYIHPF; Angiotensin-2; UniProt P01019 25-32, looked up) [peptide that induces KDR mRNA through the AT1 receptor]
KDR mRNA induction (KDR mRNA [3]): induces

C[C@H](CS)C(=O)N1CCC[C@H]1C(=O)O [captopril]
effect on blood pressure [1]: normalization | effect on hypertension-induced elevation of retinal VEGF mRNA (retinal VEGF mRNA): blocked | effect on hypertension-induced elevation of retinal KDR mRNA (retinal KDR mRNA): blocked; also recorded: returned to baseline levels
